“Also recorded” adds a separate entry of the source.
How the values were obtained:
[1] = system: GR/PPAR; assay: Ligand dependent transcription assay, GR/PPAR chimeric receptor with MMTV-luciferase reporter in COS cells; type: cell-based, African green monkey
Experimental: (§1) Similar hybrid receptors GR/NER, GR/NUC and GR/PPAR, in identical expression plasmid backgrounds were prepared essentially as described for the construction of the GR/mPPAR and GR/NUC chimeric receptors in Schmidt et al., "Identification of a new member of the steroid hormone receptor superfamily that is activated by a peroxisome proliferator and fatty acids," Mol. Endocrinol., 6(10):1634-41, 1992, and in Boie et al., "Enantioselective activation of the peroxisome proliferator-activated receptor", J. Biol. Chem. 269(8):5530-4, 1993.
(§2) Briefly, the amino terminal portion of the mouse glucocorticoid receptor (mGR), that includes the DNA binding domain was fused to the putative ligand binding domains of the nuclear receptor NER, hNUC-I (Schmidt et al., 1992), mPPAR (Issenmann and Green, 1990) to form the respective chimeric receptors GR/NER, GR/NUC and GR/PPAR. The GR/NER chimeric receptor was constructed as described for the GR/NUC and GR/PPAR hybrid receptors (Schmidt et al., 1992; Boie et al). The cDNA sequences coding for amino acids Arg^155 and Glu^156 of the NER receptor were converted to the Xho I restriction site, that was later used for the ligation to the GR cDNA sequences that coded for the DNA binding domain. Thus, converting amino acid residues Arg^155 and Glu^156 of NER receptor to amino acid residues Ser^155 and His^156.
The ligand transcription assay mediated by GR/PPAR in COS cells was performed as described in Example 4. The cells were treated with TOFA and Cerulenin at 0.1, 1, 10 and 100 μM.

[2] = system: PC12 cells; assay: Neurite differentiation of PC12 cells; type: cell-based; details: TOFA alone, without NGF (data not shown)
Experimental: To further study the influence of TOFA on the nervous system, we tested the effect of TOFA on the differentiation of PC12 cells. PC12 cells were plated at a density of approximately 100-200/mm^2 on collagen coated plates or dishes in RPMI medium supplemented with 10% horse serum, 5% fetal calf serum, […] streptomycin, 50 U/mL penicillin in a water saturated atmosphere of 95% air and 5% CO2, at 37° C. overnight. […]
At different time points during the treatment, cells were photographed or fixed with 10% formalin. Morphology was examined after four days of treatment with TOFA or vehicle (DMSO). The number of cells bearing neurites and average length of neurites were determined with the aid of the Bioquant imaging system. […] However, as depicted in Table 6 below, NGF alone induced a 15% increase in the number of cells bearing neurites and these outgrowths reached a mean length of 20 μm . Treatment with NGF and TOFA increased the percentage of cells bearing neurites to 78%. Maximal neurite generation is observed at a concentration of 10 μM TOFA.
[…] At least eighty cells from eight wells were analyzed in each group. The results are shown as the mean±SEM. ^a p<0.01, versus vehicle by Dunnetts test.

[3] = system: GR/PPAR; assay: Ligand dependent transcription assay, GR/PPAR chimeric receptor with MMTV-luciferase reporter in COS cells; type: cell-based, African green monkey; details: Table 1
[4] = system: promoter of SV40; assay: Luciferase expression from reporter gene under control of the SV40 promoter; type: cell-based
[5] = system: Haloperidol Induced Catalepsy; assay: Haloperidol (dopamine D2 antagonist) induced catalepsy, bar method; type: in vivo; details: rats; TOFA 0.4 mg/kg S.C. 24 h before Haloperidol 0.1 mg/kg
[6] = system: GR/NUC; assay: Ligand dependent transcription assay, GR/NUC chimeric receptor with MMTV-luciferase reporter; type: cell-based, human; details: Table 1
Experimental: as §1, §2

[7] = system: MMTV-luciferase reporter gene; assay: Luciferase expression in cells transfected only with the MMTV-luciferase reporter gene; type: cell-based
Experimental: (§3) Transient transfection of COS and CV1 cells was performed as described (Schmidt 1992). Cells were plated (1.5×10^5 in 1 mL) into 12 well dishes in phenol red-free medium supplemented with activated charcoal treated fetal calf serum. The next day 0.12 mL of DNA 10 μg/ml (5 μg receptor DNA and 5 μg reporter plasmid), as a calcium phosphate precipitate, was added to the cells. Ligands were added to the cells 30 minutes after transfection. The next day (18 hours), the cells were washed and fresh ligands added. Twenty-four hours later, cell extracts were prepared and assayed for luciferase enzyme activity using the luciferase assay system (Promega Madison, Wis.). Each transfection was performed in triplicate and the luciferase activity of each sample measured in duplicate using the AutoClinilumat (Berthold Nashua, New Hampshire).

[8] = system: SCH 23390 Induced Catalepsy; assay: SCH 23390 (dopamine D1 antagonist) induced catalepsy, bar method; type: in vivo; details: rats; carrier pretreatment, 24 h later SCH23390 0.5 mg/kg
Experimental: Rats were pretreated with 0.4 mg/kg TOFA or with carrier (S.C.). Twenty-four hours later, the rats were challenged with 0.5 mg/kg SCH23390, a Dopamine D1 antagonist, and the duration of catalepsy was monitored.
Catalepsy was determined by a modification of the Bar method (Undie and Friedman, 1988). A steel bar, 1.1 cm in diameter and 50 cm long, was suspended at a height of 10 cm above the working surface. Three sides of the bench around the bar were walled off with brown cardboard, and the linings on the bench surface were selected to be of the same color with the cardboard walls. The animal's hind limbs were freely placed on the bench, the tail laid out to the back, and the forelimbs placed over the bar. The length of time a rat stayed up on the bar was noted up to a preset cut-off point of 120 s. The time was counted off upon observing any of the following actions: (1) the animal came off, placing its two forepaws on the bench, (2) the animal climbed onto or over the bar with both hind limbs, (3) the animal initiated locomotion along or around the bar. Subsequently, time readings were translated into scores by awarding a score of 1 for each successfully completed 5 s on the bar. […]
Catalepsy scores were analyzed by computer in accordance with the statistical procedures outlined by Winer, B. J.: Statistical principles in experimental design. […]

[9] = system: GR/NER; assay: Ligand dependent transcription assay, GR/NER chimeric receptor with MMTV-luciferase reporter in CV1 cells; type: cell-based, African green monkey; details: for Fold of Stimulation GR/NER, Control: no dopamine
Experimental: as §3

SMILES: C/C=C/C/C=C/CCC(=O)[C@H]1O[C@H]1C(N)=O [Cerulenin]
- Fold of Stimulation GR/PPAR ([1]; 0.1 μM, Table 2, 1440 min): 1.03 ± 0.12 fold
- Fold of Stimulation GR/PPAR ([1]; 1.0 μM, Table 2): 1.13 ± 0.05 fold
- Fold of Stimulation GR/PPAR ([1]; 10.0 μM, Table 2, 1440 min): 0.58 ± 0.11 fold

SMILES: CCCCCCCCCCCCCCOc1ccc(C(=O)O)o1 [TOFA, 5-(tetradecyloxy)-2-furan carboxylic acid]
- neurite outgrowth [2]: did not induce neurite outgrowth
- Fold of Stimulation GR/PPAR ([3]; 2 μM): 2.89 ± 0.13 fold
- Fold of Stimulation GR/PPAR ([3]; 10 μM): 4.08 ± 0.10 fold
- Fold of Stimulation GR/PPAR ([3]; 20 μM): 5.75 ± 0.14 fold
- stimulation of luciferase expression, reporter under control of the promoter of SV40 [4]: did not stimulate
- effect of TOFA pretreatment on Haloperidol-induced catalepsy [5]: did not significantly affect; also recorded: unaffected
- Fold of stimulation GR/NUC ([6]; 2 μM): 1.95 ± 0.14 fold
- Fold of stimulation GR/NUC ([6]; 10 μM): 2.85 ± 0.20 fold
- Fold of stimulation GR/NUC ([6]; 50 μM): 3.19 ± 0.20 fold
- stimulation of luciferase expression, MMTV-luciferase reporter gene only [7]: did not stimulate
- Fold of Stimulation GR/PPAR ([1]; 0.1 μM, Table 2, 1440 min): 1.04 ± 0.14 fold
- Fold of Stimulation GR/PPAR ([1]; 1.0 μM, Table 2): 2.38 ± 0.16 fold
- Fold of Stimulation GR/PPAR ([1]; 10.0 μM, Table 2, 1440 min): 4.43 ± 0.23 fold
- Fold of Stimulation GR/PPAR ([1]; 100 μM, Table 2, 1440 min): 4.10 ± 0.52 fold

SMILES: CCCCCCCC/C=C\CCCCCCCC(=O)O [Oleic Acid, oleic acid]
- Fold of Stimulation GR/PPAR ([3]; 50 μM): 2.87 ± 0.2 fold
- Fold of Stimulation GR/PPAR ([3]; 300 μM): 14.69 ± 0.06 fold
- Fold of stimulation GR/NUC ([6]; 150 μM): 3.42 ± 0.28 fold

SMILES: CN1CCc2cc(Cl)c(O)cc2C(c2ccccc2)C1 (centres unmarked) [SCH-23390, 8-chloro-2,3,4,5-tetrahydro-3-methyl-5-phenyl-1H-3-benzazepin-7-ol hemimaleate]
- Catalepsy Duration [8]: 3.1 ± 1.3 s
- Fold of Stimulation GR/NER, Dopamine (50 μM) ([9]; SCH-23390 0.1 μM with dopamine 50 μM): 0.59 ± 0.06 fold
- Fold of Stimulation GR/NER, Control ([9]; SCH-23390 0.1 μM): 1.32 ± 0.15 fold
- Fold of Stimulation GR/NER, Dopamine (50 μM) ([9]; SCH-23390 1.0 μM with dopamine 50 μM): 0.55 ± 0.09 fold
- Fold of Stimulation GR/NER, Control ([9]; SCH-23390 1.0 μM): 1.22 ± 0.11 fold
- Fold of Stimulation GR/NER, Dopamine (50 μM) ([9]; SCH-23390 10.0 μM with dopamine 50 μM): 0.83 ± 0.12 fold
- Fold of Stimulation GR/NER, Control ([9]; SCH-23390 10.0 μM): 1.64 ± 0.38 fold
- Fold of Stimulation GR/NER, Dopamine (50 μM) ([9]; SCH-23390 100 μM with dopamine 50 μM): 2.61 ± 0.86 fold
- Fold of Stimulation GR/NER, Control ([9]; SCH-23390 100 μM): 2.38 ± 0.19 fold

From patent publication US5939322A, “Human steroid receptor” (Merck & Co., Inc., priority 1996, dated 1999)
